Test results published in PubChem BioAssay AID2060613 (Molecular Pharmacology Branch, DTP, NCI, 2025).
Where “and” joins values, the source holds several entries; their conditions need not be identical. Equal entries are not always repeated.

Tested on: 233499-124-R-J3-PDC complex spheroid viability
Experiment: Anticancer human tumor 233499-124-R-J3-PDC patient-derived colon adenocarcinoma cell line growth inhibition [CLK]
Conditions: for viability, T/C: stronger effect = lower value
Procedure, shortened: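 Patient-derived tumor cells grown as complex spheroids with HUVEC endothelial cells and mesenchymal stem cells, treated with drug combinations. Concentrations descend in half-log steps from near clinical Cmax, or from 10 microM if Cmax unknown.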
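Further: spheroids exposed to the drug combinations for seven days.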
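Wherever viability, T/C is given: percent viability relative to DMSO vehicle control wells taken as 100%.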

With `CC1COCCN1c1cc(C2(S(C)(=N)=O)CC2)nc(-c2ccnc3[nH]ccc23)n1` (stereo unspecified) the viability, T/C (compound 0.0316 µM) was 101% and 95.8%, the viability, T/C (compound 0.1 µM) was 101% and 91.5% and the viability, T/C (compound 0.316 µM) was 98.3% and 92.1%. The viability, T/C (compound 1 µM) was 101% and 74.8%, the viability, T/C (compound 3.16 µM) was 99.7% and 89.2% and the viability, T/C (compound 10 µM) was 81.4% and 53.9%. For the same compound, the IC50 (curve of compound) was > 10 µM.

`Nc1ccn(C2OC(CO)C(O)C2(F)F)c(=O)n1` (stereo unspecified) was tested, and the viability, T/C (compound 0.0316 µM) was 100% and 98%, the viability, T/C (compound 0.1 µM) was 80.3% and 47.1% and the viability, T/C (compound 0.316 µM) was 39.9% and 22.4%. For the same compound, the viability, T/C (compound 1 µM) was 33.8% and 20.9%, the viability, T/C (compound 3.16 µM) was 38.9% and 21.9% and the viability, T/C (compound 10 µM) was 41.3% and 15.8%. For the same compound, the IC50 (curve of compound) was 0.237 µM and 0.0936 µM.

Work on `CCc1c2c(nc3ccc(O)cc13)-c1cc3c(c(=O)n1C2)COC(=O)[C@]3(O)CC` + CNC(=O)c1ccc(Nc2nc(OC3CCCC3)c3c(-c4ccc5nc(C)oc5c4)c[nH]c3n2)c(OC)c1 yielded an IC50 (curve of first compound, second compound 0.0316 µM) of 0.114 µM, an IC50 (curve of first compound, second compound 0.1 µM) of 0.0345 µM and an IC50 (curve of first compound, second compound 0.316 µM) of 0.0158 µM. For the same compound, the IC50 (curve of first compound, second compound 1 µM) was 0.0152 µM, the IC50 (curve of first compound, second compound 3.16 µM) was 0.00468 µM and the IC50 (curve of first compound, second compound 10 µM) was < 0.00316 µM. The viability, T/C (second compound 0.0316 µM, first compound 0.00316 µM) was 76%, the viability, T/C (second compound 0.0316 µM, first compound 0.01 µM) was 56.8% and the viability, T/C (second compound 0.0316 µM, first compound 0.0316 µM) was 55%. The viability, T/C (second compound 0.0316 µM, first compound 0.1 µM) was 61.8%, the viability, T/C (second compound 0.0316 µM, first compound 0.316 µM) was 34.7% and the viability, T/C (second compound 0.0316 µM, first compound 1 µM) was 18.3%. For the same compound, the viability, T/C (second compound 0.1 µM, first compound 0.00316 µM) was 57.5%, the viability, T/C (second compound 0.1 µM, first compound 0.01 µM) was 53.8% and the viability, T/C (second compound 0.1 µM, first compound 0.0316 µM) was 47.3%. The viability, T/C (second compound 0.1 µM, first compound 0.1 µM) was 46.6%, the viability, T/C (second compound 0.1 µM, first compound 0.316 µM) was 31.1% and the viability, T/C (second compound 0.1 µM, first compound 1 µM) was 11.6%. The viability, T/C (second compound 0.316 µM, first compound 0.00316 µM) was 65.5%, the viability, T/C (second compound 0.316 µM, first compound 0.01 µM) was 50% and the viability, T/C (second compound 0.316 µM, first compound 0.0316 µM) was 38.4%. For the same compound, the viability, T/C (second compound 0.316 µM, first compound 0.1 µM) was 45.1%, the viability, T/C (second compound 0.316 µM, first compound 0.316 µM) was 19.6% and the viability, T/C (second compound 0.316 µM, first compound 1 µM) was 11.3%. The viability, T/C (second compound 1 µM, first compound 0.00316 µM) was 63%, the viability, T/C (second compound 1 µM, first compound 0.01 µM) was 49.8% and the viability, T/C (second compound 1 µM, first compound 0.0316 µM) was 40.2%. The viability, T/C (second compound 1 µM, first compound 0.1 µM) was 53.6%, the viability, T/C (second compound 1 µM, first compound 0.316 µM) was 12.3% and the viability, T/C (second compound 1 µM, first compound 1 µM) was 5.66%. It also gave a viability, T/C (second compound 3.16 µM, first compound 0.00316 µM) of 50.9%, a viability, T/C (second compound 3.16 µM, first compound 0.01 µM) of 48.6% and a viability, T/C (second compound 3.16 µM, first compound 0.0316 µM) of 25.6%. It also gave a viability, T/C (second compound 3.16 µM, first compound 0.1 µM) of 18%, a viability, T/C (second compound 3.16 µM, first compound 0.316 µM) of 6.64% and a viability, T/C (second compound 3.16 µM, first compound 1 µM) of 5.12%. For the same compound, the viability, T/C (second compound 10 µM, first compound 0.00316 µM) was 51%, the viability, T/C (second compound 10 µM, first compound 0.01 µM) was 32.3% and the viability, T/C (second compound 10 µM, first compound 0.0316 µM) was 35.1%. It also gave a viability, T/C (second compound 10 µM, first compound 0.1 µM) of 17.8%, a viability, T/C (second compound 10 µM, first compound 0.316 µM) of 8.94% and a viability, T/C (second compound 10 µM, first compound 1 µM) of 2.94%.
